Measured values: PubChem BioAssay AID1259407 (Chemical Carcinogenesis Research Information System (CCRIS), 2018)
Calls of active or inactive are those of the source. How the calls were made is not given here.

Test system: CCRIS mutagenicity, Ames/micronucleus/aberration tests
Assay: CCRIS mutagenicity studies

SMILES: Nc1ccc(Cl)cc1
- mutagenic call (End Point: IN VITRO MICRONUCLEUS, Test System: CHL/IU CELLS, Metabolic Activation: RAT, LIVER, S-9, PHENOBARBITAL AND 5,6-BENZOFLAVONE): inactive; negative
- mutagenic call (Test System: AMES SALMONELLA TYPHIMURIUM, Strain/Indicator: TA97, Metabolic Activation: HAMSTER, LIVER, S-9, AROCLOR 1254, Method: PREINCUBATION): inactive; negative
- mutagenic call (Test System: AMES SALMONELLA TYPHIMURIUM, Strain/Indicator: TA97, Metabolic Activation: NONE, Method: PREINCUBATION): inactive; negative
- mutagenic call (Test System: AMES SALMONELLA TYPHIMURIUM, Strain/Indicator: TA97, Metabolic Activation: RAT, LIVER, S-9, AROCLOR 1254, Method: PREINCUBATION): inactive; negative
- mutagenic call (Test System: AMES SALMONELLA TYPHIMURIUM, Strain/Indicator: TA98, Metabolic Activation: HAMSTER, LIVER, S-9 (10%), AROCLOR 1254, Method: PREINCUBATION): active; positive
- mutagenic call (Test System: AMES SALMONELLA TYPHIMURIUM, Strain/Indicator: TA98, Metabolic Activation: HAMSTER, LIVER, S-9, AROCLOR 1254, Method: STANDARD PLATE): active; positive
- mutagenic call (Test System: AMES SALMONELLA TYPHIMURIUM, Strain/Indicator: TA98, Metabolic Activation: NONE, Method: PREINCUBATION): inactive; negative
- mutagenic call (Test System: AMES SALMONELLA TYPHIMURIUM, Strain/Indicator: TA98, Metabolic Activation: NONE, Method: SPOT TEST): inactive; negative
- mutagenic call (Test System: AMES SALMONELLA TYPHIMURIUM, Strain/Indicator: TA98, Metabolic Activation: RAT, LIVER, S-9 (5%, 10% OR 30%), AROCLOR 1254, Method: PREINCUBATION): active; positive
- mutagenic call (Test System: AMES SALMONELLA TYPHIMURIUM, Strain/Indicator: TA98, Metabolic Activation: RAT, LIVER, S-9, AROCLOR 1254, Method: SPOT TEST): inactive; negative
- mutagenic call (Test System: AMES SALMONELLA TYPHIMURIUM, Strain/Indicator: TA98, Metabolic Activation: RAT, LIVER, S-9, SODIUM PHENOBARBITONE, Method: SPOT TEST): inactive; negative
- mutagenic call (Test System: AMES SALMONELLA TYPHIMURIUM, Strain/Indicator: TA98, Metabolic Activation: RAT, LIVER, S-9, SODIUM PHENOBARBITONE, Method: STANDARD PLATE): inactive; negative
- mutagenic call (Test System: AMES SALMONELLA TYPHIMURIUM, Strain/Indicator: TA100, Metabolic Activation: HAMSTER, LIVER, S-9 (5% OR 10%), AROCLOR 1254, Method: PREINCUBATION): inactive; negative
- mutagenic call (Test System: AMES SALMONELLA TYPHIMURIUM, Strain/Indicator: TA100, Metabolic Activation: HAMSTER, LIVER, S-9, AROCLOR 1254, Method: PREINCUBATION): inactive; negative
- mutagenic call (Test System: AMES SALMONELLA TYPHIMURIUM, Strain/Indicator: TA100, Metabolic Activation: HAMSTER, LIVER, S-9, AROCLOR 1254, Method: STANDARD PLATE): inactive; negative
- mutagenic call (Test System: AMES SALMONELLA TYPHIMURIUM, Strain/Indicator: TA100, Metabolic Activation: NONE, Method: PREINCUBATION): inactive; negative
- mutagenic call (Test System: AMES SALMONELLA TYPHIMURIUM, Strain/Indicator: TA100, Metabolic Activation: NONE, Method: SPOT TEST): inactive; negative
- mutagenic call (Test System: AMES SALMONELLA TYPHIMURIUM, Strain/Indicator: TA100, Metabolic Activation: RAT, LIVER, S-9 (5% OR 10%), AROCLOR 1254, Method: PREINCUBATION): inactive; negative
- mutagenic call (Test System: AMES SALMONELLA TYPHIMURIUM, Strain/Indicator: TA100, Metabolic Activation: RAT, LIVER, S-9 (30%), AROCLOR 1254, Method: PREINCUBATION): inactive; negative
- mutagenic call (Test System: AMES SALMONELLA TYPHIMURIUM, Strain/Indicator: TA100, Metabolic Activation: RAT, LIVER, S-9, AROCLOR 1254, Method: PREINCUBATION): inactive; negative
- mutagenic call (Test System: AMES SALMONELLA TYPHIMURIUM, Strain/Indicator: TA100, Metabolic Activation: RAT, LIVER, S-9, AROCLOR 1254, Method: SPOT TEST): inactive; negative
- mutagenic call (Test System: AMES SALMONELLA TYPHIMURIUM, Strain/Indicator: TA100, Metabolic Activation: RAT, LIVER, S-9, AROCLOR 1254, Method: STANDARD PLATE): inactive; negative
- mutagenic call (Test System: AMES SALMONELLA TYPHIMURIUM, Strain/Indicator: TA100, Metabolic Activation: RAT, LIVER, S-9, SODIUM PHENOBARBITONE, Method: SPOT TEST): inactive; negative
- mutagenic call (Test System: AMES SALMONELLA TYPHIMURIUM, Strain/Indicator: TA100, Metabolic Activation: RAT, LIVER, S-9, SODIUM PHENOBARBITONE, Method: STANDARD PLATE): inactive; negative
- mutagenic call (Test System: AMES SALMONELLA TYPHIMURIUM, Strain/Indicator: TA1535, Metabolic Activation: HAMSTER, LIVER, S-9, AROCLOR 1254, Method: PREINCUBATION): inactive; negative
- mutagenic call (Test System: AMES SALMONELLA TYPHIMURIUM, Strain/Indicator: TA1535, Metabolic Activation: NONE, Method: PREINCUBATION): inactive; negative
- mutagenic call (Test System: AMES SALMONELLA TYPHIMURIUM, Strain/Indicator: TA1535, Metabolic Activation: NONE, Method: SPOT TEST): inactive; negative
